Tests used:
Bcl-w = target: T1, Bcl-w (Homo sapiens, UniProt Q92843); assay: AlphaLISA competitive binding assay, Bcl-w; settings: His-tagged Bcl-w, biotin-tagged BIM peptide, 24 h incubation
T1 construct: purchased Sigma-Aldrich
T1 sequence (Q92843 1-193): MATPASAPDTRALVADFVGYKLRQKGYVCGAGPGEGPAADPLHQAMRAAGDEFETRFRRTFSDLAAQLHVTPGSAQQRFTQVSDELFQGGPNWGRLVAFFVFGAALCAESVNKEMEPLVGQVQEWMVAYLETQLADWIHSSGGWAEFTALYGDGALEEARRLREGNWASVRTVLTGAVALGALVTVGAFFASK
Method: (§1) Purified recombinant His-tagged Bcl-xL/Bcl-2/Bcl-w (Sigma-Aldrich, St. Louis, MO) were incubated with increasing concentrations of compound #55 and a fixed concentration of biotin-tagged Bad (for Bcl-xL) or BIM peptides (for Bcl-2 and Bcl-w) (AnaSpec, Fremont, CA) to a final volume of 40 µL in 96-well PCR plate. After 24 h incubation, 5 μL 6×His-Acceptor beads (final concentration 20 μg/mL) (PerkinElmer, Houston, TX) were added to each well and incubated for 1 h. Thereafter, 5 μL streptavidin-donor beads were added (final concentration 20 μg/mL) (PerkinElmer) to each well and incubated for 0.5 h. At the end of the incubation period, 17 μL of each sample was transferred in adjacent wells of 384-well proxy plate. The plate was scanned using Alpha program on Biotek's Synergy Neo2 multi-mode plate reader. The inhibition constant (Ki) was calculated using non-linear regression, one site, competitive binding, Fit Ki function on GraphPad Prism based on experimentally determined Kd for each protein/peptide pair.

MOLT4 cells = assay: MTS cell viability assay in MOLT4 cells
Method: (§6) Cell viability was measured by tetrazolium-based MTS assay and IC50 was calculated as a percentage of vehicle-treated cells.

RS4; 11 cells = assay: MTS cell viability assay in RS4; 11 cells; format: cell-based, human
Method: as §6

H146 cells = assay: MTS cell viability assay in H146 cells; format: cell-based, human
Method: (§2) Small cell lung cancer H146 cells were incubated either with 500 nM ABT-199 (Bcl-2 inhibitor) or 125 nM compound #55 or the combination of both for 72 h. The cell viability was measured using MTS assay. The combination indices (CI) were calculated using formula CI=AB/(A×B); where AB is the percent cell inhibition by the combination whereas A and B are the percent cell inhibition by individual agents. CI<1 indicates synergism, whereas CI<0.3 indicates strong synergism.

EJM cells = assay: MTS cell viability assay in EJM cells; format: cell-based, human
Method: as §2, with “Multiple Myeloma EJM” for “Small cell lung cancer H146”, “250” for “500”, “S63845 (Mcl-1” for “ABT-199 (Bcl-2”

H929 cells = assay: MTS cell viability assay in H929 cells; format: cell-based, human; settings: Mcl-1-dependent H929 cells, 72 h
Method: as §6

platelets = assay: Platelet toxicity; format: cell-based; settings: up to 3 μM; data not shown
[1] = tested on: caspase-3 and poly (ADP) ribose polymerase (PARP); assay: Western blot of cleaved caspase-3 and PARP in MOLT4 cells; format: cell-based, human; settings: 0.1 and 0.3 μM, 24 h
Method: At the end of incubation, cells were harvested for western blot analysis of cleaved and full length caspase-3 and poly (ADP) ribose polymerase (PARP). The antibodies for cleaved caspase-3 (Cat #9661), full length caspase-3 (Cat #9662), and PARP (Cat #9532) were purchased from Cell Signaling Technology. A single Anti-PARP antibody used can detect both cleaved and full length PARP.

Mcl-1 [2] = target: T2, Mcl-1 (Homo sapiens, UniProt Q07820); assay: Western blot Mcl-1 levels in MOLT4 cells; format: cell-based; design: endogenous in cells; settings: 16 h
T2 sequence (Q07820 whole entry): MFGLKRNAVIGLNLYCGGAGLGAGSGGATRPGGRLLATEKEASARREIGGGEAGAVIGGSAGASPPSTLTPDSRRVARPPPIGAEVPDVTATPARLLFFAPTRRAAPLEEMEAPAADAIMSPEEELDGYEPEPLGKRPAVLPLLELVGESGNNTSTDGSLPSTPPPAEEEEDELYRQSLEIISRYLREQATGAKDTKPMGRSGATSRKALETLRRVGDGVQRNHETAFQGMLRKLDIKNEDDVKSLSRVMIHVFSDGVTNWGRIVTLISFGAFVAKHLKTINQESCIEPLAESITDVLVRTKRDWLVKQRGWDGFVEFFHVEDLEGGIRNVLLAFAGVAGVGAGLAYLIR
Method: (§3) MOLT4 cells and human platelets were incubated with increasing concentrations of compound #55 for 16 h. The cells were harvested and lysed in RIPA lysis buffer supplemented with protease and phosphatase inhibitor cocktails. An equal amount of protein (20 μg/lane) was resolved on a pre-cast 4-20% SDS-PAGE gel. Proteins were subsequently transferred to NOVEX PVDF membranes by electrophoresis. The membranes were blocked in blocking buffer (5% non-fat dry milk in TBS-T), and incubated with primary antibodies (at optimized concentrations) overnight at 4° C. After three washings in TBS-T, the membranes were incubated with an appropriate HRP-conjugated secondary antibody for 1 h at room temperature. After extensive washing for three times, the proteins of interest were detected with ECL western blotting detection reagents and recorded with autoradiography (Pierce Biotech, Rockford, IL, USA). The primary antibodies for Bcl-xL (Cat #2762), Bcl-2 (Cat #2872), Mcl-1 (Cat #5453) and β-actin (Cat #4970) were purchased from Cell Signaling technology. The relative band intensity was measured using ImageJ software and normalized to b-actin. The DC50 (concentration with 50% degradation) was calculated using GraphPad Prism. […] Bcl-2 levels were not detected, whereas Mcl-1 was unaffected with compound #55 treatment in MOLT4 cells (FIGS. 1B and 1D). […]

Bcl-xL [3] = target: T3, Bcl-xL (Homo sapiens, UniProt Q07817); assay: Western blot Bcl-XL degradation in additional cancer cells; format: cell-based; design: endogenous in cells; settings: RS4; 11, EJM, H929 (16 h), H146 (48 h); fixed concentration
T3 sequence (Q07817 whole entry): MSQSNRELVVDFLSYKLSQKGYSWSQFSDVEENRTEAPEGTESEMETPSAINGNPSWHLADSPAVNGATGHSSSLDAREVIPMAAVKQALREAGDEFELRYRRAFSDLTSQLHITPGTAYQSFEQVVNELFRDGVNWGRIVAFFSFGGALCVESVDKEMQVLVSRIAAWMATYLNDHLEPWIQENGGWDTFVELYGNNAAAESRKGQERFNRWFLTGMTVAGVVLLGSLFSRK
Method: as §3, with “The primary antibodies for Bcl-xL (Cat #2762), Bcl-2 (Cat #2872), Mcl-1 (Cat #5453) and β-actin (Cat #4970) were purchased from Cell Signaling technology.” left out
(§4) Tumor cells were incubated with a fixed concentration of compound #55 for 16 h (RS4; 11, EJM, H929) or 48 h (H146) and Bcl-2/Bcl-xL/Mcl-1 levels were determined using Western blot analysis as described above.

Bcl-xL [4] = target: T3, Bcl-xL; assay: AlphaLISA competitive binding assay, Bcl-xL; design: purchased Sigma-Aldrich; settings: His-tagged Bcl-xL, biotin-tagged Bad peptide, 24 h incubation
Method: as §1

Bcl-2 [5] = target: T4, Bcl-2 (Homo sapiens, UniProt P10415); assay: AlphaLISA competitive binding assay, Bcl-2; design: purchased Sigma-Aldrich; settings: His-tagged Bcl-2, biotin-tagged BIM peptide, 24 h incubation
T4 sequence (P10415 whole entry): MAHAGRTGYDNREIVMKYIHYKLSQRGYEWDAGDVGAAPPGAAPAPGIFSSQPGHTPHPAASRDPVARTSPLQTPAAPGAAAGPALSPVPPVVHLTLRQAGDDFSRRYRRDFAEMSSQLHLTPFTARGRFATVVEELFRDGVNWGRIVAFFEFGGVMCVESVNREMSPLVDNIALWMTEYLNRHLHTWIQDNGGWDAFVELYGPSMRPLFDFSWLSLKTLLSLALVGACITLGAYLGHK
Method: as §1

Bcl-xL [6] = target: T3, Bcl-xL; assay: Western blot Bcl-xL degradation assay in MOLT4 cells; format: cell-based; design: endogenous in cells; host or cells: MOLT4
Method: (§5) MOLT4 cells and human platelets were incubated with increasing concentrations of compound #55 for 16 h. The cells were harvested and lysed in RIPA lysis buffer supplemented with protease and phosphatase inhibitor cocktails. An equal amount of protein (20 μg/lane) was resolved on a pre-cast 4-20% SDS-PAGE gel. Proteins were subsequently transferred to NOVEX PVDF membranes by electrophoresis. The membranes were blocked in blocking buffer (5% non-fat dry milk in TBS-T), and incubated with primary antibodies (at optimized concentrations) overnight at 4° C. After three washings in TBS-T, the membranes were incubated with an appropriate HRP-conjugated secondary antibody for 1 h at room temperature. After extensive washing for three times, the proteins of interest were detected with ECL western blotting detection reagents and recorded with autoradiography (Pierce Biotech, Rockford, IL, USA). The primary antibodies for Bcl-xL (Cat #2762), Bcl-2 (Cat #2872), Mcl-1 (Cat #5453) and β-actin (Cat #4970) were purchased from Cell Signaling technology. The relative band intensity was measured using ImageJ software and normalized to b-actin. The DC50 (concentration with 50% degradation) was calculated using GraphPad Prism. […] Bcl-2 levels were not detected, whereas Mcl-1 was unaffected with compound #55 treatment in MOLT4 cells (FIGS. 1B and 1D). […] The DC50 and Dmax values of compound #55 in platelets were >3 μM and 26%, respectively (FIG. 1E).
MOLT4 cells were incubated with a fixed concentration of compound #55 for increasing time points. In another experiment, cells were treated for 16 hours followed by drug withdrawal and further cultured for increasing time-points before harvesting them for Bcl-xL degradation assays. Bcl-xL levels were measured using Western blot analysis as described above. The relative band intensity was measured using ImageJ software and normalized to equal loading control β-actin.
Cell viability was measured by MTS assay.
Third, we sought to confirm that compound #55-induced Bcl-xL degradation depends on proteasomal activity.
Fourth, we sought to confirm that Bcl-xL degardation by compound #55 requires the binding with Bcl-xL protein.

Bcl-xL [7] = target: T3, Bcl-xL; assay: Western blot Bcl-xL degradation assay in human platelets; format: cell-based; design: endogenous in cells; host or cells: MOLT4; settings: 16 h
Method: as §5

Bcl-2 [8] = target: T4, Bcl-2; assay: Western blot Bcl-2 levels in additional cancer cells; format: cell-based; design: endogenous in cells; host or cells: RS4;11, EJM, H929, H146; settings: RS4; 11, EJM, H929 (16 h), H146 (48 h); fixed concentration
Method: as §3, with “The primary antibodies for Bcl-xL (Cat #2762), Bcl-2 (Cat #2872), Mcl-1 (Cat #5453) and β-actin (Cat #4970) were purchased from Cell Signaling technology.” left out
as §4

Mcl-1 [9] = target: T2, Mcl-1; assay: Western blot Mcl-1 levels in additional cancer cells; format: cell-based; design: endogenous in cells; host or cells: RS4;11, EJM, H929, H146; settings: RS4; 11, EJM, H929 (16 h), H146 (48 h); fixed concentration
Method: as §3, with “The primary antibodies for Bcl-xL (Cat #2762), Bcl-2 (Cat #2872), Mcl-1 (Cat #5453) and β-actin (Cat #4970) were purchased from Cell Signaling technology.” left out
as §4

## CC1(C)CCC(c2ccc(Cl)cc2)=C(CN2CCN(c3ccc(C(=O)NS(=O)(=O)c4ccc(N[C@H](CCN5CCOCC5)CSc5ccccc5)c(S(=O)(=O)C(F)(F)F)c4)cc3)CC2)C1 [ABT-263, navitoclax, reference compound]
Bcl-w
  Ki: 33.5 nM
MOLT4 cells; MOLT4 cells, with 1 μM and 2 μM VHL-L, 72 h
  cell killing in the presence of VHL-L: could not further induce the cell killing in the presence of VHL-L

## (2S,4R)-1-((S)-2-(7-(4-((R)-3-((4-(N-(4-(4-((4′- Chloro-4,4-dimethyl- 3,4,5,6-tetrahydro-[1,1′-biphenyl]-2- yl)methyl)piperazin-1-yl)benzoyl)sultamoyl)-2- ((trifluoromethyl)sulfonyl)phenyl)amino)-4- (phenylthio)butyl)piperazin-1-yl)-7- oxoheptanamido)-3,3-dimethylbutanoyl)-4-hydroxy- N-((S)-1-(4-(4-methylthiazol-5- yl)phenyl)ethyl)pyrrolidine-2-carboxamide [compound #55]
RS4; 11 cells; Bcl-2-dependent RS4, 72 h, MTS, read-out: IC50 loss of cell viability
  IC50: 230 nM
RS4; 11 cells; RS4, 72 h
  effect on cell viability compared with ABT-263: less prominent than ABT-263
H146 cells; Bcl-2/Bcl-xL-dependent H146 cells, 72 h, MTS, read-out: IC50 loss of cell viability
  IC50: 160 nM
H146 cells; H146 cells, 125 nM compound #55 + 500 nM ABT-199, 72 h, MTS
  loss of cell viability in combination with ABT-199: synergistically induce the loss of cell viability
H146 cells; H146 cells, 72 h
  effect on cell viability compared with ABT-263: less prominent than ABT-263
EJM cells; EJM cells, 125 nM compound #55 + 250 nM S63845, 72 h
  loss of cell viability in combination with S63845: synergistically induce the loss of cell viability
EJM cells; Mcl-1-dependent EJM cells, 72 h
  cellular activity: did not show any significant cellular activity
H929 cells
  cellular activity: did not show any significant cellular activity
platelets
  platelet toxicity: did not induce any significant platelet toxicity
Bcl-w
  Ki: 301 nM
[1]
  cleavage of caspase-3 and PARP: induced cleavage of caspase-3 and PARP
  cleavage of caspase-3 and PARP compared with ABT263: more pronounced than ABT263
Mcl-1 [2]
  Mcl-1 levels: unaffected
Bcl-xL [3]
  Bcl-XL degradation: capable of degrading Bcl-XL in all these cell lines
Bcl-xL [4]
  Ki: 12.8 nM
Bcl-2 [5]
  Ki: 1.82 nM
MOLT4 cells; MOLT4 cells pretreated with 1 and 2 μM VHL-L for 1 h, then 72 h
  cell killing in the presence of VHL-L: abrogated
MOLT4 cells; read-out: IC50 cell viability, Bcl-XL-dependent MOLT4 cells, 72 h, MTS
  IC50: 52 nM
Bcl-xL [6]; 1 μM ABT-263 pretreatment, 0.1 and 1 μM, 16 h
  Bcl-xL degradation in ABT263-pretreated cells: did not induce Bcl-xL degradation
Bcl-xL [6]; 1 μM MG132 pretreatment, 0.1 and 1 μM, 6 h
  Bcl-xL degradation in MG132-pretreated cells: did not induce Bcl-xL degradation
Bcl-xL [6]; 16 h
  Dmax (maximum degradation) of Bcl-xL: 90.8%
Bcl-xL [6]; 16 h, read-out: DC50 (concentration with 50% degradation) of Bcl-xL
  DC50: 63 nM
Bcl-xL [6]; VHL-L pretreatment, then 16 h
  Bcl-xL degradation in VHL-L-pretreated cells: did not induce Bcl-xL degradation
Bcl-xL [6]; fixed concentration, increasing time points
  time at which significant Bcl-xL degradation starts: 2 h
Bcl-xL [6]; treated 16 hours then drug withdrawal
  Bcl-xL degrading activity after drug withdrawal: able to sustain its Bcl-xL degrading activity for prolonged period after drug withdrawal
Bcl-xL [7]
  Bcl-xL levels: did not affect Bcl-xL levels
  DC50: > 3000 nM
  Dmax of Bcl-xL: 26%
Bcl-2 [8]
  effect on Bcl-2 levels: sparing Bcl-2 and Mcl-1
Mcl-1 [9]
  effect on Mcl-1 levels: sparing Bcl-2 and Mcl-1
